Experimental data taken from US20250074891A1 (Anaxis Pharma Pty Ltd., priority 2021, published 2025).

Key:
MLKL (full length) = MLKL (full length) (Homo sapiens (Human), UniProt Q8NB16); test: KINOMEscan binding assay, MLKL (full length); conditions: Table 36
Description: Kinase assays. For most assays, kinase-tagged T7 phage strains were grown in parallel in 24-well blocks in an E. coli host derived from the BL21 strain. E. coli were grown to log-phase and infected with T7 phage from a frozen stock (multiplicity of infection=0.4) and incubated with shaking at 32° C. until lysis (90-150 minutes).
The Hill Slope was set to −1.

[1] = tested on: U937 human histiocytic leukemia cell line; test: Cellular assay: inhibition of TSQ induced necroptosis (CellTitre-Glo); conditions: Homo sapiens, U-937; U937 cells, TSQ cocktail, 48 hours, Table 38; read-out: Inhibition of TSQ-induced necroptosis (IC50 cell-based assay)
Description: […] ASSAY: Screening compounds for inhibition of TSQ induced necroptosis, 384 well plate format.
Cell Line ID: U937 human histiocytic leukemia cell line.
Cell Concentration (cells/well): Final cell density is 20,000 cells per well.
Cell growth medium: HT-RPMI medium+7.4% Fetal Bovine Serum (FBS). Cells are cultured in Corning 150 cm^z tissue culture flasks with vented caps at 37° C./5% CO2.
Incubation: Plates were incubated at 37° C./5% CO2 in a humidified incubator for 48 hours following addition of compounds and death stimuli (TSQ cocktail).
Compound concentration: 36 μM starting concentration, 1:3 dilution, 10 point
DMSO final concentration (% v/v): 0.3%.
Compounds in TSQ cocktail (T: TNF; S: Smac mimetic; Q: Q-VD-OPh) and their final concentrations: • hTNF-Fc (100 ng/ml)—produced by standard procedures as shown in Bossen et al., J Biol Chem, 2006, 281(20), 13964-13971. • Compound A (500 nM)—Smac mimetic, Tetralogic and SYNthesis med chem • Q-VD-OPh (10 μM)—MP Biomedicals
The cellular assay was carried out according to the following steps: • 1. Each well was prepared by sequential addition of: • a. DMSO (control; columns 1-2 and 23-24) or compound in DMSO—addition was performed using acoustic transfer of nl volumes of stock compound to give final test concentrations of 36, 12, 4, 1.3, 0.44, 0.148, 0.049, 0.016, 0.005 and 0.002 μM. All wells were backfilled with DMSO to a final total volume in the well of 100 nl. • b. Following compound/DMSO addition in step (a), 40 μL of cell suspension (5×10^5 cells/mL) was added to provide a final cell concentration of 20,000 cells per well, and • c. Following cell addition in step (b), 10 μL of 5×TSQ cocktail (except to positive controls; […]) was added to each well. • 2. After 48 hours, plate was removed from the 37° C. incubator and equilibrated to room temperature for 45 minutes. • 3. 15 μL of room temperature CellTitre-Glo2™ (Promega™) was added to each well. • 4. Shook plates for 2 minutes (˜600 rpm) and incubated at room temperature for 15 minutes to allow signal to stabilise. • 5. Read luminescence readout on a plate reader.
Percent viability was calculated for each compound according to equation (2):
[formula] • wherein • RawData is the readout of any cell containing a compound of the invention • TA is the total activity provided by the luminescence readout from DMSO only wells (columns 2 and 24)=100% viability • NSA is the non-specific activity provided by DMSO+TSQ wells (columns 1 and 23)=0% viability
Curve fitting: 10-point titration curves are fitted with the 4-parameter logistic nonlinear regression model and the IC50 reported is the inflection point of the curve.
Analysis: Data was loaded into Dotmatics™ and visualised using the Tibco® Spotfire™ software. 10 points titration curves were fitted with the 4-parameter logistic nonlinear regression model and the IC50 reported reflect the inflection point of the curve for curve fitting.
Assay involving the TSQ cocktail (T: TNF; S: Smac mimetic; Q: Q-VD-OPh): TSQ treatment ensures that cells specifically undergo necroptotic cell death. TNF activates the TNF receptor, Smac mimetic directs the signal away from proinflammatory signaling and toward the RIP1/RIP3-mediated cell death pathways, and Q-VD-OPh ensures that the apoptotic response is blocked leaving only the programmed necrosis response. The compounds' activity (solution in DMSO) tested in this TSQ-induced assay was evaluated by determining the number of viable cells in culture by measuring the amount of ATP present as measured by CelltiterGlo.

U937 cells = test: Counter screen: cell viability without TSQ cocktail (off-target effect); design: species or system human; conditions: Homo sapiens, U-937, Table 38, read-out: Off-target effect (IC50 cell-based assay)
Description: Counter screen: In parallel, all compounds were tested for their ability to affect cell viability. The same U937 cells were treated with compound in DMSO without the TSQ cocktail. This counter screen enabled evaluation of off-target effects. In this case, cell viability was measured by CelltiterGlo.

Chain of MLKL (full length) (Q8NB16 whole entry): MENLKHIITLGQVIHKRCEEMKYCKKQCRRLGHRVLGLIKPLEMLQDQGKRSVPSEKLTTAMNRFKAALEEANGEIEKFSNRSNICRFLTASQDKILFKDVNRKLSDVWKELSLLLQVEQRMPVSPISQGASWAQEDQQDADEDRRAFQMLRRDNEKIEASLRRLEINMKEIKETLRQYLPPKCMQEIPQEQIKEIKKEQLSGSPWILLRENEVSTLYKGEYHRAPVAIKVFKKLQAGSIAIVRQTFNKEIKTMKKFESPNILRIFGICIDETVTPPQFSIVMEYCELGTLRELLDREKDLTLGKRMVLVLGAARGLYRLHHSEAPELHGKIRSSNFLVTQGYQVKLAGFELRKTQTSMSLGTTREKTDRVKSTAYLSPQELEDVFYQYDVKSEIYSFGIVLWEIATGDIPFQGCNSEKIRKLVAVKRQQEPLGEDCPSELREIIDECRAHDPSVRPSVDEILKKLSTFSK

Row | Compound | Kd (MLKL (full length)) [nM] | IC50 [1] [nM] | IC50 (U937 cells) [nM]
1 | CCS(=O)(=O)Nc1ccc(-c2n[nH]c(Nc3ccnc(OCCCCC(=O)N[C@H](C(=O)N4C[C@@H](O)C[C@H]4C(=O)NCc4ccc(-c5scnc5C)cc4)C(C)(C)C)c3)c2C(N)=O)cc1 [Compound 1014, 3-(4-ethanesulfonamidophenyl)-5-{[2-(4-{[(2S)-1-[(2S,4S)-4-hydroxy-2-({[4-(4-methyl-1,3-thiazol-5-yl)phenyl]methyl}carbamoyl)pyrrolidin-1-yl]-3,3-dimethyl-1-oxobutan-2-yl]carbamoyl}butoxy)pyridin-4-yl]amino}-1H-pyrazole-4-carboxamide] | < 10 | > 10000 | > 10000
2 | Cc1ncsc1-c1ccc(CNC(=O)[C@@H]2C[C@@H](O)CN2C(=O)[C@@H](NC(=O)CCCCOc2cc(Nc3[nH]nc(-c4ccc(NS(=O)(=O)C(F)F)cc4)c3C(N)=O)ccn2)C(C)(C)C)cc1 [Compound 1017, 3-[4-(difluoromethanesulfonamido)phenyl]-5-{[2-(4-{[(2S)-1-[(2S,4R)-4-hydroxy-2-({[4-(4-methyl-1,3-thiazol-5-yl)phenyl]methyl}carbamoyl)pyrrolidin-1-yl]-3,3-dimethyl-1-oxobutan-2-yl]carbamoyl}butoxy)pyridin-4-yl]amino}-1H-pyrazole-4-carboxamide] | < 10 | 1000 to 10000 | > 10000
3 | CCS(=O)(=O)Nc1ccc(-c2n[nH]c(Nc3ccnc(OCCCCCCCCCCCCCC(=O)N[C@H](C(=O)N4C[C@H](O)C[C@H]4C(=O)NCc4ccc(-c5scnc5C)cc4)C(C)(C)C)c3)c2C(N)=O)cc1 [Compound 1018, 3-(4-ethanesulfonamidophenyl)-5-({2-[(13-{[(2S)-1-[(2S,4R)-4-hydroxy-2-({[4-(4-methyl-1,3-thiazol-5-yl)phenyl]methyl}carbamoyl)pyrrolidin-1-yl]-3,3-dimethyl-1-oxobutan-2-yl]carbamoyl}tridecyl)oxy]pyridin-4-yl}amino)-1H-pyrazole-4-carboxamide] | 10 to 1000 | > 10000 | > 10000
4 | CCS(=O)(=O)Nc1ccc(-c2n[nH]c(Nc3cnc(OCCCCC(=O)N[C@H](C(=O)N4C[C@H](O)C[C@H]4C(=O)NCc4ccc(-c5scnc5C)cc4)C(C)(C)C)cn3)c2C(N)=O)cc1 [Compound 1022, 3-(4-ethanesulfonamidophenyl)-5-{[5-(4-{[(2S)-1-[(2S,4R)-4-hydroxy-2-({[4-(4-methyl-1,3-thiazol-5-yl)phenyl]methyl}carbamoyl)pyrrolidin-1-yl]-3,3-dimethyl-1-oxobutan-2-yl]carbamoyl}butoxy)pyrazin-2-yl]amino}-1H-pyrazole-4-carboxamide] | < 10 | < 1000 | > 10000
5 | CCS(=O)(=O)Nc1ccc(-c2n[nH]c(Nc3ccc(C(=O)OCCOCC(=O)N[C@H](C(=O)N4C[C@H](O)C[C@H]4C(=O)NCc4ccc(-c5scnc5C)cc4)C(C)(C)C)cn3)c2C(N)=O)cc1O[C@@H](C)c1ccc(F)cc1 [Compound 1046, 2-({[(2S)-1-[(2S,4R)-4-hydroxy-2-({[4-(4-methyl-1,3-thiazol-5-yl)phenyl]methyl}carbamoyl)pyrrolidine-1-yl]-3,3-dimethyl-1-oxobutan-2-yl]carbamoyl}methoxy)ethyl 6-[(4-carbamoyl-3-{4-ethanesulfonamido-3-[(1S)-1-(4-fluorophenyl)ethoxy]phenyl}-1H-pyrazol-5-yl)amino]pyridine-3-carboxylate] | 10 to 1000 | < 1000 | > 10000

Second part, led by results:

Row | Kd (MLKL (full length)) [nM] | Compound | IC50 [1] [nM] | IC50 (U937 cells) [nM]
6 | < 10 | Cc1ncsc1-c1ccc(CNC(=O)[C@@H]2C[C@@H](O)CN2C(=O)[C@@H](NC(=O)COCCOc2cc(Nc3[nH]nc(-c4ccc(NS(=O)(=O)C(F)F)cc4)c3C(N)=O)ccn2)C(C)(C)C)cc1 [Compound 1012, 3-[4-(difluoromethanesulfonamido)phenyl]-5-({2-[2-({[(2S)-1-[(2S,4R)-4-hydroxy-2-({[4-(4-methyl-1,3-thiazol-5-yl)phenyl]methyl}carbamoyl)pyrrolidin-1-yl]-3,3-dimethyl-1-oxobutan-2-yl]carbamoyl}methoxy)ethoxy]pyridin-4-yl}amino)-1H-pyrazole-4-carboxamide] | > 10000 | > 10000
7 | < 10 | Cc1ncsc1-c1ccc(CNC(=O)[C@@H]2C[C@@H](O)CN2C(=O)[C@@H](NC(=O)CCn2ccc(Nc3[nH]nc(-c4ccc(NS(=O)(=O)C(F)F)c(O[C@@H](C)c5ccc(F)cc5)c4)c3C(N)=O)n2)C(C)(C)C)cc1 [Compound 1032, 3-[4-(difluoromethanesulfonamido)-3-[(1S)-1-(4-fluorophenyl)ethoxy]phenyl]-5-{[1-(2-{[(2S)-1-[(2S,4R)-4-hydroxy-2-({[4-(4-methyl-1,3-thiazol-5-yl)phenyl]methyl}carbamoyl)pyrrolidin-1-yl]-3,3-dimethyl-1-oxobutan-2-yl]carbamoyl}ethyl)-1H-pyrazol-3-yl]amino}-1H-pyrazole-4-carboxamide] | > 10000 | > 10000
8 | < 10 | Cc1ncsc1-c1ccc(CNC(=O)[C@@H]2C[C@@H](O)CN2C(=O)[C@@H](NC(=O)CCCn2ccc(Nc3[nH]nc(-c4ccc(NS(=O)(=O)C(F)F)c(O[C@@H](C)c5ccc(F)cc5)c4)c3C(N)=O)n2)C(C)(C)C)cc1 [Compound 1033, 3-[4-(difluoromethanesulfonamido)-3-[(1S)-1-(4-fluorophenyl)ethoxy]phenyl]-5-{[1-(3-{[(2S)-1-[(2S,4R)-4-hydroxy-2-({[4-(4-methyl-1,3-thiazol-5-yl)phenyl]methyl}carbamoyl)pyrrolidin-1-yl]-3,3-dimethyl-1-oxobutan-2-yl]carbamoyl}propyl)-1H-pyrazol-3-yl]amino}-1H-pyrazole-4-carboxamide] | 1000 to 10000 | > 10000
9 | < 10 | Cc1ncsc1-c1ccc(CNC(=O)[C@@H]2C[C@@H](O)CN2C(=O)[C@@H](NC(=O)COCCn2ccc(Nc3[nH]nc(-c4ccc(NS(=O)(=O)C(F)F)c(O[C@@H](C)c5ccc(F)cc5)c4)c3C(N)=O)n2)C(C)(C)C)cc1 [Compound 1036, 3-[4-(difluoromethanesulfonamido)-3-[(1S)-1-(4-fluorophenyl)ethoxy]phenyl]-5-({1-[2-({[(2S)-1-[(2S,4R)-4-hydroxy-2-({[4-(4-methyl-1,3-thiazol-5-yl)phenyl]methyl}carbamoyl)pyrrolidin-1-yl]-3,3-dimethyl-1-oxobutan-2-yl]carbamoyl}methoxy)ethyl]-1H-pyrazol-3-yl}amino)-1H-pyrazole-4-carboxamide] | 1000 to 10000 | > 10000
10 | < 10 | Cc1ncsc1-c1ccc(CNC(=O)[C@@H]2C[C@@H](O)CN2C(=O)[C@@H](NC(=O)COCCOCCn2ccc(Nc3[nH]nc(-c4ccc(NS(=O)(=O)C(F)F)c(O[C@@H](C)c5ccc(F)cc5)c4)c3C(N)=O)n2)C(C)(C)C)cc1 [Compound 1037, 3-[4-(difluoromethanesulfonamido)-3-[(1S)-1-(4-fluorophenyl)ethoxy]phenyl]-5-[(1-{2-[2-({[(2S)-1-[(2S,4R)-4-hydroxy-2-({[4-(4-methyl-1,3-thiazol-5-yl)phenyl]methyl}carbamoyl)pyrrolidin-1-yl]-3,3-dimethyl-1-oxobutan-2-yl]carbamoyl}methoxy)ethoxy]ethyl}-1H-pyrazol-3-yl)amino]-1H-pyrazole-4-carboxamide] | < 1000 | > 10000
